Assay results published in patent publication US20230124862A1, “BISMUTH THIOL COMPOUNDS AND COMPOSITIONS AND METHODS OF TREATING MICROBIAL CO-INFECTIONS” (Microbion Corporation, priority 2020, published 2023).
Values joined by “and” are separate entries in the source; they are usually repeats but may differ in a detail not shown here. Identical values can stand only once. Like-named read-outs stand apart in the source and are kept apart here.

Type: in vivo, beagle dogs
Procedure: Once adequately conditioned to the restraint device and face-masks, the animals are individually exposed to the test article aerosols. Animals receive a single face-mask inhalation exposure in a ramp study design to test article aerosols for up to 60 min. Animal observations during and post exposure determine the tolerance of inhaled BisEDT aerosols.
Blood Collections and Bioanalytical Analysis: Blood are collected for pharmacokinetic (PK) analysis prior to exposure, then at 4 hr (±5 min) post exposure, and again on Day 1, Day 2, Day 7 (pre- and 4 hr (±5 min)-post exposure), Day 8, Day 9, Day 10, Day 11, Day 12, Day 13, and Day 14. A total of 0.25 mL is collected at each timepoint. No PK blood is collected from the vehicle control (Group 1) animals; only animals exposed to BisEDT have blood collected for PK analysis. Collected samples are flash frozen without processing for shipment to Medpace for bioanalytical analysis. Additional blood is collected from all animals in all groups for hematology (1 mL) and clinical chemistry (1 mL) at baseline, Day 7 (pre-exposure), and again at euthanasia. Blood (2-2 mL) is collected from all animals at necropsy for coagulation analysis (d-Dimer, fibrinogen, PT, and PTT).
For clinical chemistry analyses, whole blood (1 mL) is placed into serum separator or clot tube and […] by centrifugation at a minimum of 1300 g at 2 to 8° C. for 10 (±1) min. Plasma samples are stored at −70 to −90° C. until analysis.
Clinical chemistry samples are analyzed on a Hitachi Modular Analytics Clinical Chemistry System (Roche Diagnostics, Indianapolis, Ind.).

For `C1C[S][Bi]([S]CC[S][Bi]2[S]CC[S]2)[S]1` [BisEDT, Bismuth-1,2-ethanedithiol], the AGR (dog 2001 Male) was 1.9 and 2.0 and 1.8, the ALB (dog 2001 Male) was 3.3 g/dL and 3.4 g/dL and 3.5 g/dL and the ALPK (dog 2001 Male) was 130 IU/L and 140 IU/L and 128 IU/L. For the same molecule, the ALT (dog 2001 Male) was 22 IU/L, the AST (dog 2001 Male) was 48 IU/L and 36 IU/L and the BUN (dog 2001 Male) was 12 mg/dL and 16 mg/dL and 15 mg/dL. The CA2 (dog 2001 Male) was 10.9 mg/dL and 10.8 mg/dL and 11.0 mg/dL, the CHOL (dog 2001 Male) was 168 mg/dL and 167 mg/dL and 152 mg/dL and the CREA (dog 2001 Male) was 0.7 mg/dL and 0.6 mg/dL. For the same molecule, the Cl (dog 2001 Male) was 109 mmo/L and 113 mmo/L and 108 mmo/L, the GGT (dog 2001 Male) was 3 IU/L and the GLOB (dog 2001 Male) was 1.7 g/dL and 2.0 g/dL. For the same molecule, the GLUC (dog 2001 Male) was 91 mg/dL and 97 mg/dL and 102 mg/dL, the K (dog 2001 Male) was 4.5 mmo/L and 4.9 mmo/L and 4.7 mmo/L and the Na (dog 2001 Male) was 149 mmo/L and 147 mmo/L. The TBIL (dog 2001 Male) was 0.15 mg/dL, the TP (dog 2001 Male) was 5.0 g/dL and 5.1 g/dL and 5.5 g/dL and the TRIG (dog 2001 Male) was 66 mg/dL and 80 mg/dL and 63 mg/dL. For the same molecule, the AGR (dog 2002 Female) was 1.7 and 2.3, the ALB (dog 2002 Female) was 3.3 g/dL and 3.6 g/dL and 3.7 g/dL and the ALT (dog 2002 Female) was 18 IU/L and 29 IU/L and 27 IU/L. For the same molecule, the AST (dog 2002 Female) was 35 IU/L and 41 IU/L and 38 IU/L, the BUN (dog 2002 Female) was 13 mg/dL and 14 mg/dL and the CA2 (dog 2002 Female) was 10.9 mg/dL and 10.8 mg/dL and 10.6 mg/dL. The CHOL (dog 2002 Female) was 138 mg/dL and 123 mg/dL and 114 mg/dL, the CREA (dog 2002 Female) was 0.6 mg/dL and the Cl (dog 2002 Female) was 110 mmo/L and 114 mmo/L and 113 mmo/L. For the same molecule, the GGT (dog 2002 Female) was 3 IU/L, the GLOB (dog 2002 Female) was 1.9 g/dL and 1.6 g/dL and the GLUC (dog 2002 Female) was 95 mg/dL and 98 mg/dL and 89 mg/dL. For the same molecule, the K (dog 2002 Female) was 5.0 mmo/L and 5.2 mmo/L and 4.6 mmo/L, the Na (dog 2002 Female) was 149 mmo/L and 147 mmo/L and 148 mmo/L and the TBIL (dog 2002 Female) was 0.15 mg/dL. The TP (dog 2002 Female) was 5.2 g/dL and 5.3 g/dL, the TRIG (dog 2002 Female) was 38 mg/dL and 39 mg/dL and 31 mg/dL and the AGR (dog 3001 Male) was 2.0 and 2.1. For the same molecule, the ALB (dog 3001 Male) was 3.2 g/dL and 3.4 g/dL, the ALPK (dog 3001 Male) was 142 IU/L and 135 IU/L and 121 IU/L and the ALT (dog 3001 Male) was 26 IU/L and 24 IU/L and 22 IU/L. The AST (dog 3001 Male) was 30 IU/L and 32 IU/L and 33 IU/L, the CA2 (dog 3001 Male) was 10.7 mg/dL and 10.5 mg/dL and 10.0 mg/dL and the CHOL (dog 3001 Male) was 100 mg/dL and 111 mg/dL. The CREA (dog 3001 Male) was 0.6 mg/dL and 0.7 mg/dL and 1.0 mg/dL, the Cl (dog 3001 Male) was 111 mmo/L and 110 mmo/L and 109 mmo/L and the GGT (dog 3001 Male) was 3 IU/L. For the same molecule, the GLOB (dog 3001 Male) was 1.6 g/dL and 1.7 g/dL, the GLUC (dog 3001 Male) was 100 mg/dL and 88 mg/dL and 51 mg/dL and the K (dog 3001 Male) was 4.7 mmo/L and 5.1 mmo/L and 5.8 mmo/L. For the same molecule, the Na (dog 3001 Male) was 146 mmo/L and 148 mmo/L, the TBIL (dog 3001 Male) was 0.15 mg/dL and the TP (dog 3001 Male) was 4.8 g/dL and 5.1 g/dL and 5.0 g/dL. For the same molecule, the TRIG (dog 3001 Male) was 26 mg/dL and 34 mg/dL and 52 mg/dL, the AGR (dog 3002 Female) was 2.3 and 1.8 and 2.6 and the ALB (dog 3002 Female) was 3.5 g/dL and 3.7 g/dL. The ALPK (dog 3002 Female) was 164 IU/L and 90 IU/L and 176 IU/L, the ALT (dog 3002 Female) was 28 IU/L and 20 IU/L and the AST (dog 3002 Female) was 36 IU/L and 28 IU/L and 30 IU/L. The CA2 (dog 3002 Female) was 11.2 mg/dL and 10.8 mg/dL and 10.4 mg/dL, the CHOL (dog 3002 Female) was 126 mg/dL and 175 mg/dL and 141 mg/dL and the CREA (dog 3002 Female) was 0.6 mg/dL and 0.5 mg/dL and 0.9 mg/dL. The Cl (dog 3002 Female) was 112 mmo/L and 109 mmo/L and 110 mmo/L, the GGT (dog 3002 Female) was 3 IU/L and the GLOB (dog 3002 Female) was 1.5 g/dL and 2.0 g/dL and 1.4 g/dL. The GLUC (dog 3002 Female) was 112 mg/dL and 90 mg/dL and 65 mg/dL, the K (dog 3002 Female) was 5.5 mmo/L and 5.3 mmo/L and 5.9 mmo/L and the Na (dog 3002 Female) was 149 mmo/L and 145 mmo/L. The TBIL (dog 3002 Female) was 0.15 mg/dL, the TP (dog 3002 Female) was 5.0 g/dL and 5.5 g/dL and 5.1 g/dL and the TRIG (dog 3002 Female) was 34 mg/dL and 43 mg/dL and 58 mg/dL. The AGR (dog 4001 Male) was 2.3 and 1.8 and 1.9, the ALB (dog 4001 Male) was 3.6 g/dL and 3.4 g/dL and 3.2 g/dL and the ALPK (dog 4001 Male) was 103 IU/L and 114 IU/L and 119 IU/L. For the same molecule, the ALT (dog 4001 Male) was 27 IU/L and 28 IU/L, the AST (dog 4001 Male) was 32 IU/L and 39 IU/L and 34 IU/L and the BUN (dog 4001 Male) was 11 mg/dL and 12 mg/dL. For the same molecule, the CA2 (dog 4001 Male) was 10.8 mg/dL and 10.6 mg/dL and 10.4 mg/dL, the CHOL (dog 4001 Male) was 153 mg/dL and 147 mg/dL and 111 mg/dL and the CREA (dog 4001 Male) was 0.7 mg/dL and 0.6 mg/dL. The Cl (dog 4001 Male) was 120 mmo/L and 116 mmo/L and 113 mmo/L, the GGT (dog 4001 Male) was 3 IU/L and the GLOB (dog 4001 Male) was 1.6 g/dL and 1.9 g/dL and 1.7 g/dL. For the same molecule, the GLUC (dog 4001 Male) was 102 mg/dL and 82 mg/dL and 86 mg/dL, the K (dog 4001 Male) was 4.7 mmo/L and 4.8 mmo/L and the Na (dog 4001 Male) was 152 mmo/L and 147 mmo/L and 145 mmo/L. The TBIL (dog 4001 Male) was 0.15 mg/dL, the TP (dog 4001 Male) was 5.2 g/dL and 5.3 g/dL and 4.9 g/dL and the TRIG (dog 4001 Male) was 49 mg/dL and 46 mg/dL and 40 mg/dL. For the same molecule, the AGR (dog 4002 Female) was 1.7 and 1.8, the ALB (dog 4002 Female) was 3.5 g/dL and the ALPK (dog 4002 Female) was 147 IU/L and 103 IU/L. The ALT (dog 4002 Female) was 20 IU/L and 21 IU/L, the AST (dog 4002 Female) was 32 IU/L and 35 IU/L and the BUN (dog 4002 Female) was 13 mg/dL and 12 mg/dL. The CA2 (dog 4002 Female) was 11.1 mg/dL and 11.2 mg/dL, the CHOL (dog 4002 Female) was 182 mg/dL and 169 mg/dL and the CREA (dog 4002 Female) was 0.6 mg/dL and 0.5 mg/dL. For the same molecule, the Cl (dog 4002 Female) was 116 mmo/L and 112 mmo/L.
